Assay results from ChEMBL document CHEMBL1148105, “Bioactive metabolites from a marine-derived strain of the fungus Emericella variecolor” (2002).
Converted amounts (≈) assume the structure as drawn.

Assays:
Type in all cases: functional
Staphylococcus aureus = experiment: Antimicrobial activity against Staphylococcus aureus
Enterococcus faecalis = experiment: Antimicrobial activity against Enterococcus faecalis
Bacillus subtilis = experiment: Antimicrobial activity against Bacillus subtilis
Escherichia coli = experiment: Antimicrobial activity against Escherichia coli
Proteus sp. = experiment: Antimicrobial activity against Proteus sp.; conditions: Proteus sp. (in: enterobacteria)

MIC (Staphylococcus aureus): 12.5 µg/mL (≈ 26.7 µM)
MIC (Enterococcus faecalis): 50 µg/mL (≈ 107 µM)
MIC (Bacillus subtilis): 12.5 µg/mL (≈ 26.7 µM)
MIC (Escherichia coli): 12.5 µg/mL (≈ 26.7 µM)
MIC (Proteus sp.): 12.5 µg/mL (≈ 26.7 µM)
SMILES: C=C(C)[C@H]1COc2c(C)cc3oc4c(C[C@H](OC=O)C(C)(C)O)ccc(O)c4c(=O)c3c2[C@@H]1O [VARIXANTHONE]
